This experiment concerns the target T1, met (HGF receptor) in human gastric cancer cells MKN45 (Homo sapiens, UniProt P08581).
T1 construct: endogenous in cells; host or cells: MKN45 human gastric cancer cells
Nature of the experiment: Inhibitory activity against met-autophosphorylation using ELISA method (2), MKN45 cells, HGF-independent. It counts as cell-based. Summed up:
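MKN45 cells, 3×10^4 per well in RPMI with 0.1% FCS overnight, were exposed to compound in DMSO for 1 h at 37 °C without HGF. Lysates were captured on anti-phosphotyrosine (PY20) plates, Met detected with anti-Met and peroxidase secondary antibody, absorbance at 450 nm.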
T1 sequence (P08581 25-1390): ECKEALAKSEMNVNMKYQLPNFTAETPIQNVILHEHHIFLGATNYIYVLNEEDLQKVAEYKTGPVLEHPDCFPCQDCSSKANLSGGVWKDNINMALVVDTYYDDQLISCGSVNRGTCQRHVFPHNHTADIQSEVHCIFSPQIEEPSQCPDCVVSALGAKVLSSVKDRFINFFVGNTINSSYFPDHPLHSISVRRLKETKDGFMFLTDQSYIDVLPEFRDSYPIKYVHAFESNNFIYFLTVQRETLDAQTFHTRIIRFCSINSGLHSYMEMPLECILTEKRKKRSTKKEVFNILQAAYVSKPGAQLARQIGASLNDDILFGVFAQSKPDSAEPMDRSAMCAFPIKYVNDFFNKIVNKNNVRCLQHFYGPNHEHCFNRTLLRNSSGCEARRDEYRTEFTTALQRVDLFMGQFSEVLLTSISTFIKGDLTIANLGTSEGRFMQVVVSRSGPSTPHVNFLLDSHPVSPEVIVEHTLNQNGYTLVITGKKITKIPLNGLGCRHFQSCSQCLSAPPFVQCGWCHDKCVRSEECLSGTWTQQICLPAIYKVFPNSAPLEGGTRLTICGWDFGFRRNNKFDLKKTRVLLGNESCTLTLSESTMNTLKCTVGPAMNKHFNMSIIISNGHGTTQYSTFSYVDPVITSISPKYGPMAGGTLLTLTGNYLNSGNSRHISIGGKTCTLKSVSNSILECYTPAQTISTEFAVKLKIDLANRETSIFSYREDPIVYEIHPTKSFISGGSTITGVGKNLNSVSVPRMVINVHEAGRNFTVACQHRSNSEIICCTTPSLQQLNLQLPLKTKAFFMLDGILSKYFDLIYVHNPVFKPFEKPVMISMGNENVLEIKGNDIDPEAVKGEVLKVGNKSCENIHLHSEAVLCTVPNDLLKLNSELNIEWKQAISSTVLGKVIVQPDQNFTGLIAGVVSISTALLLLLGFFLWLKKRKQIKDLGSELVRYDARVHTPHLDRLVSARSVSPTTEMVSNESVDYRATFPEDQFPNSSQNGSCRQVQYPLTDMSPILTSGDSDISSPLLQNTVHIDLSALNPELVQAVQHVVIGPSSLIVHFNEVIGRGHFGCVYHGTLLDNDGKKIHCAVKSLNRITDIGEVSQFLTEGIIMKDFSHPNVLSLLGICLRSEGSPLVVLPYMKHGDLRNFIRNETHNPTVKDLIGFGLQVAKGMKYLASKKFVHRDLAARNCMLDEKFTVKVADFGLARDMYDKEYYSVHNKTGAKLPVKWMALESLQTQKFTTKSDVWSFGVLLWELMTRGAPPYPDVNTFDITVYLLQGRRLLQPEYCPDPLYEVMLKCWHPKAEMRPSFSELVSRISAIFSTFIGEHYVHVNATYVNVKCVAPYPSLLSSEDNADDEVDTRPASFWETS
Consider `COc1cc2nccc(Oc3c(Cl)cc(NC(=S)NC(=O)Cc4ccccc4)cc3Cl)c2cc1OC` [Example 70, 1-[3,5-dichloro-4-(6,7-dimethoxyquinolin-4-yloxy)phenyl]-3-phenylacetylthiourea], for which the IC50 is 0.0153 µM.
The result for `COc1cc2nccc(Oc3ccc(NC(=O)C(C)C(=O)NC4CCCCC4)cc3)c2cc1OC` (stereo not drawn) [Example 226, N-cyclohexyl-N′-[4-(6,7-dimethoxyquinolin-4-yloxy)phenyl]-2-methylmalonamide] reads 3.23 µM; that for `COc1cc2nccc(Oc3ccc(NC(=S)NC(=O)Cc4ccc(Cl)cc4)cc3Cl)c2cc1OC` [Example 189, 1-[3-chloro-4-(6,7-dimethoxyquinolin-4-yloxy)phenyl]-3-[2-(4-chlorophenyl)acetyl]thiourea], 0.232 µM.
`COc1cc2nccc(Oc3ccc(NC(=O)NC(=O)Nc4ccc(F)cc4Cl)cc3)c2cc1OC` [Example 250, N-(2-chloro-4-fluorophenyl)-({[4-(6,7-dimethoxyquinolin-4-yloxy)anilino]carbonyl}amino)-methanamide] displayed a half-inhibitory concentration (IC50) of 0.447 µM. Against the preceding compound, the IC50 is about 1.9-fold higher.
The result for `COc1cc2nccc(Oc3ccc(NC(=O)NC(=O)Cn4ccnn4)cc3Cl)c2cc1OC` [Example 123, 1-[3-chloro-4-(6,7-dimethoxyquinolin-4-yloxy)phenyl]-3-(2-[1,2,3]triazol-1-ylacetyl)urea] reads 2.01 µM.
The result for `COc1cc2nccc(Oc3ccc(NC(=S)NC(=O)CCCCl)cc3F)c2cc1OC` [Example 148, 1-(4-chloro-butyryl)-3-[4-(6,7-dimethoxy-quinolin-4-yloxy)-3-fluorophenyl]thiourea] reads 2.48 µM.
With `COc1cc2nccc(Oc3ccc(NC(=O)NC(=O)Cc4ccccc4F)cc3Cl)c2cc1OC` [Example 28, 1-[3-chloro-4-(6,7-dimethoxyquinolin-4-yloxy)-phenyl]-3-[2-(2-fluorophenyl)acetyl]urea] the figure was 0.162 µM; with `COc1cc2nccc(Oc3ccc(NC(=S)NC(=O)Cc4cccc(F)c4)cc3)c2cc1OC` [Example 164, 1-[4-(6,7-dimethoxyquinolin-4-yloxy)phenyl]-3-[2-(3-fluorophenyl)acetyl]thiourea], 0.242 µM.
`COc1cc2nccc(Oc3ccc(NC(=O)NC(=O)Nc4ccccc4F)cc3)c2cc1OC` [Example 252, N-(2-fluorophenyl)-({[4-(6,7-dimethoxy-quinolin-4-yloxy)anilino]carbonyl}amino)methanamide]: the IC50 worked out at 0.301 µM. This IC50 and that of the compound before are within 1.5-fold of each other.
In the case of `COc1cccc(CC(=O)NC(=S)Nc2ccc(Oc3ccnc4cc(OC)c(OC)cc34)cc2)c1` [Example 184, 1-[4-(6,7-dimethoxyquinolin-4-yloxy)phenyl]-3-[2-(3-methoxyphenyl)acetyl]thiourea], the IC50 is 0.268 µM.
`COc1cc2nccc(Oc3ccc(NC(=S)NC(=O)CC4CCCCC4)cc3)c2cc1OC` [Example 61, 1-(2-cyclohexylacetyl)-3-[4-(6,7-dimethoxy-quinolin-4-yloxy)phenyl]thiourea] yielded an IC50 of 0.113 µM.
In turn, `COc1cc2nccc(Oc3ccc(NC(=O)NC(=O)Cc4ccccc4)cc3F)c2cc1OC` [Example 17, 1-[4-(6,7-dimethoxyquinolin-4-yloxy)-3-fluoro-phenyl]-3-phenylacetylurea] displayed an IC50 of 0.0307 µM.
The result for `COc1ccccc1CC(=O)NC(=S)Nc1ccc(Oc2ccnc3cc(OC)c(OC)cc23)cc1` [Example 153, 1-[4-(6,7-dimethoxyquinolin-4-yloxy)phenyl]-3-[2-(2-methoxyphenyl)acetyl]thiourea] reads 0.232 µM; that for `COc1cc2nccc(Oc3ccc(NC(=O)C(OC)C(=O)Nc4ccc(F)cc4F)cc3)c2cc1OC` (stereo not drawn) [Example 103, N-(2,4-difluorophenyl)-N′-[4-(6,7-dimethoxy-quinolin-4-yloxy)phenyl]-2-methoxymalonamide], 2.77 µM.
With `COc1cc2c(Oc3ccc(NC(=O)NC(=O)Cc4ccccc4)c(F)c3)ccnc2cc1OCCCN1CCC(CO)CC1` [Example 311, 1-(2-Fluoro-4-{7-[3-(4-hydroxymethyl-piperidin-1-yl)-propoxy]-6-methoxy-quinolin-4-yloxy}-phenyl)-3-phenyl-acetyl-urea] the figure was 0.0185 µM; with `COc1cc2nccc(Oc3ccc(NC(=O)NC(=O)Nc4ccccc4Cc4ccccc4)cc3)c2cc1OC` [Example 246, N-(2-benzylphenyl)-({[4-(6,7-dimethoxy-quinolin-4-yloxy)anilino]carbonyl}amino)methanamide], 2.91 µM.
For the compound `COc1cc2nccc(Oc3ccc(NC(=O)NC(=O)Nc4ccccc4SC)cc3)c2cc1OC` [Example 253, N-[2-(methylsulfanyl)phenyl]-({[4-(6,7-dimethoxyquinolin-4-yloxy)anilino]carbonyl}amino)-methanamide], the IC50 came out at 1.34 µM.
In turn, `COc1cc2nccc(Oc3ccc(NC(=O)NC(=O)CC4C5CCC4CC5)cc3Cl)c2cc1OC` (stereo not drawn) [Example 128, 1-(2-bicyclo[2.2.1]hepto-7-ylacetyl)-3-[3-chloro-4-(6,7-dimethoxyquinolin-4-yloxy)phenyl]urea] yielded an IC50 of 0.285 µM.
In turn, `COc1cc2nccc(Oc3ccc(NC(=O)NC(=O)Cc4ccccc4F)c(F)c3)c2cc1OC` [Example 26, 1-[4-(6,7-dimethoxyquinolin-4-yloxy)-2-fluoro-phenyl]-3-[2-(2-fluorophenyl)acetyl]urea] had an IC50 of 0.126 µM. This IC50 is about 2.3-fold lower than that of the compound before.
With `COc1cc2nccc(Oc3ccc(NC(=S)NC(=O)Cc4ccccc4)c(F)c3)c2cc1OC` [Example 58, 1-[4-(6,7-dimethoxyquinolin-4-yloxy)-2-fluorophenyl]-3-phenylacetylthiourea] the figure was 0.027 µM; with `COc1cc2nccc(Oc3ccc(NC(=O)NC(=O)Cc4ccccc4)c(F)c3)c2cc1OC` [Example 16, 1-[4-(6,7-dimethoxyquinolin-4-yloxy)-2-fluoro-phenyl]-3-phenylacetylurea], 0.0328 µM; with `COc1cc2nccc(Oc3ccc(NC(=S)NC(=O)Cc4ccccc4C(F)(F)F)c(F)c3)c2cc1OC` [Example 200, 1-[4-(6,7-dimethoxyquinolin-4-yloxy)-2-fluorophenyl]-3-[2-(2-trifluoromethylphenyl)acetyl]-thiourea], 0.305 µM.
Turning to `COc1cc2c(Oc3ccc(NC(=O)NC(=O)Cc4ccccc4)cc3F)ccnc2cc1OCCN1CCC(CO)CC1` [Example 283], the IC50 stood at 0.0146 µM.
With `COc1cc2nccc(Oc3ccc(NC(=O)CC(=O)Nc4ccc(F)cc4F)c(F)c3)c2cc1OC` [Example 98, N-(2,4-difluorophenyl)-N′-[4-(6,7-dimethoxy-quinolin-4-yloxy)-2-fluorophenyl]malonamide] the figure was 0.0278 µM; with `COc1cc2c(Oc3ccc(NC(=O)NC(=O)Cc4ccccc4F)cc3F)ccnc2cc1OCCCn1ccnc1` [Example 306, 1-{3-Fluoro-4-[7-(3-imidazol-1-yl-propoxy)-6-methoxy-quinolin-4-yloxy]-phenyl}-3-[2-(2-fluoro-phenyl)-acetyl]-urea], 0.0339 µM.
With `COc1cc2nccc(Oc3ccc(NC(=S)NC(=O)Cc4ccsc4)cc3F)c2cc1OC` [Example 85, 1-[4-(6,7-dimethoxyquinolin-4-yloxy)-3-fluoro-phenyl]-3-(2-thiophen-3-ylacetyl)thiourea] the figure was 0.0488 µM; with `COc1cc2c(Oc3ccc(NC(=O)NC(=O)Cc4ccccc4)cc3F)ccnc2cc1OCCCN1CCC(CO)CC1` [Example 308, 1-(3-Fluoro-4-{7-[3-(4-hydroxymethyl-piperidin-1-yl)-propoxy]-6-methoxy-quinolin-4-yloxy}-phenyl)-3-phenylacetyl-urea], 0.0214 µM; with `COc1cc2nccc(Oc3ccc(NC(=S)NC(=O)CC4C5CCC4CC5)c(F)c3)c2cc1OC` (stereo not drawn) [Example 89], 0.0526 µM.
In the case of `COc1cc2nccc(Oc3ccc(NC(=O)NC(=O)Nc4ccccc4Oc4ccccc4)cc3)c2cc1OC` [Example 255, N-(2-phenoxyphenyl)-({[4-(6,7-dimethoxy-quinolin-4-yloxy)anilino]carbonyl}amino)methanamide], half-maximal inhibition (IC50) required 0.26 µM.
The result for `COc1cc2nccc(Oc3ccc(NC(=S)NC(=O)Cc4ccc(C)cc4)c(F)c3)c2cc1OC` [Example 92, 1-[4-(6,7-dimethoxyquinolin-4-yloxy)-2-fluoro-phenyl]-3-(2-p-tolylacetyl)thiourea] reads 0.148 µM; that for `COc1cc2nccc(Oc3ccc(NC(=S)NC(=O)Cc4c(F)ccc(F)c4F)cc3Cl)c2cc1OC` [Example 207, 1-[3-chloro-4-(6,7-dimethoxyquinolin-4-yloxy)phenyl]-3-[2-(2,3,6-trifluorophenyl)acetyl]-thiourea], 0.3 µM; that for `COc1cc2c(Oc3ccc(NC(=O)NC(=O)Cc4ccc(F)cc4)cc3F)ccnc2cc1OCCN1CCN(C)CC1` [Example 49, 1-(3-fluoro-4-{6-methoxy-7-[2-(4-methyl-piperazin-1-yl)-ethoxy]quinolin-4-yloxy}phenyl)-3-[2-(4-fluorophenyl)acetyl]urea], 0.0514 µM.
With `COc1cc2nccc(Oc3ccc(NC(=S)NC(=O)Cc4ccccc4[N+](=O)[O-])cc3Cl)c2cc1OC` [Example 156, 1-[3-chloro-4-(6,7-dimethoxyquinolin-4-yloxy)phenyl]-3-[2-(2-nitrophenyl)acetyl]thiourea] the figure was 0.373 µM.
For the compound `CCOCCC(=O)NC(=S)Nc1ccc(Oc2ccnc3cc(OC)c(OC)cc23)c(F)c1` [Example 165, 1-[4-(6,7-dimethoxyquinolin-4-yloxy)-3-fluorophenyl]-3-(3-ethoxypropionyl)thiourea], the IC50 stood at 0.495 µM.
The result for `COc1cc2c(Oc3ccc(NC(=O)NC(=O)Cc4ccccc4)cc3F)ccnc2cc1OCCN1CCCCC1` [Example 13, 1-{3-fluoro-4-[6-methoxy-7-(2-piperidin-1-yl-ethoxy)quinolin-4-yloxy]phenyl}-3-phenylacetylurea] reads 0.141 µM; that for `COc1cc(Oc2ccnc3cc(OC)c(OC)cc23)ccc1NC(=S)NC(=O)Cc1ccccc1` [Example 69, 1-[4-(6,7-dimethoxyquinolin-4-yloxy)-2-methoxyphenyl]-3-phenylacetylthiourea], 0.0044 µM.
